Data from the supplement of paper PMC10307832.

compound: CC1(C)CCC(CN2CCN(c3ccc(C(=O)NS(=O)(=O)c4ccc(NCC5CCOCC5)c([N+](=O)[O-])c4)c(Oc4cnc5[nH]ccc5c4)c3)CC2)=C(c2ccc(Cl)cc2)C1 [Venetoclax] + Cc1nc(Nc2ncc(C(=O)Nc3c(C)cccc3Cl)s2)cc(N2CCN(CCO)CC2)n1 [Dasatinib] (partner 0.075 µM); assay: relative viability (nuclei count vs DMSO), 5 days (fraction); higher = more cells survive; conditions: first compound 0.01 µM
How it was run: (§1)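 Cells from lung cancer lines were seeded into 1536-well plates and, one day later, dosed by pin tool. Treatments were either a single drug or a fixed dose of an anchor drug with five library-drug doses (not always all listed) in √10 steps. After 5 days, nuclei were stained in a one-step fixation (final 0.05% Triton X-100, 1% formaldehyde, 1 ug/ml Hoechst) and counted on 4× images, and relative viability is the treated-to-vehicle nuclei ratio, as the median of duplicate plates.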

Cell Line	relative viability
SK-MES-1	0.4
HARA	0.422
COR-L23	0.414
COR-L 105	0.42
LC-2-ad	0.575
LXF-289	0.137
ChaGo-K-1	0.722
NCI-H2170	0.569
NCI-H322M	0.291
HCC-78	0.442
SW 900	0.544
NCI-H1792	0.843
NCI-H1563	0.531
HCC-366	0.618

same assay, conditions: first compound 0.03162 µM

Cell Line	relative viability
NCI-H522	0.951
NCI-H1623	0.595
PC-14	0.272
NCI-H1666	0.821
NCI-H1755	0.404
NCI-H2023	0.53
EPLC-272H	0.379
LCLC-97TM1	0.888
PC-3 [JPC-3]	0.991
LOU-NH91	0.642
NCI-H647	0.218
NCI-H23	0.781
EMC-BAC-2	0.343
NCI-H2126	0.572
NCI-H1734	0.415
NCI-H650	0.539
LK-2	0.319

Cell Line	relative viability
NCI-H2228	0.546
NCI-H2342	0.341
SK-MES-1	0.383
HARA	0.258
COR-L23	0.505
COR-L 105	0.364
LC-2-ad	0.612
LXF-289	0.262
ChaGo-K-1	0.601
NCI-H2170	0.508
NCI-H322M	0.239
HCC-78	0.441
SW 900	0.625
NCI-H1792	0.803
NCI-H1563	0.516
HCC-366	0.592

same assay, conditions: first compound 0.1 µM

Cell Line	relative viability
NCI-H522	0.805
NCI-H1623	0.534
PC-14	0.284
NCI-H1666	0.838
NCI-H1755	0.43
NCI-H2023	0.653
EPLC-272H	0.352
LCLC-97TM1	0.764
PC-3 [JPC-3]	0.995
LOU-NH91	0.532
NCI-H647	0.162
NCI-H23	0.636
EMC-BAC-2	0.292
NCI-H2126	0.612
NCI-H1734	0.417
NCI-H650	0.453
LK-2	0.259

Cell Line	relative viability
NCI-H2228	0.496
NCI-H2342	0.325
SK-MES-1	0.329
HARA	0.228
COR-L23	0.484
COR-L 105	0.296
LC-2-ad	0.522
LXF-289	0.242
ChaGo-K-1	0.59
NCI-H2170	0.373
NCI-H322M	0.237
HCC-78	0.409
SW 900	0.645
NCI-H1792	0.556
NCI-H1563	0.445
HCC-366	0.523

same assay, conditions: first compound 0.3162 µM

Cell Line	relative viability
NCI-H522	0.8
NCI-H1623	0.515
PC-14	0.259
NCI-H1666	0.708
NCI-H1755	0.402
NCI-H2023	0.512
EPLC-272H	0.36
LCLC-97TM1	0.733
PC-3 [JPC-3]	1.01
LOU-NH91	0.58
NCI-H647	0.238
NCI-H23	0.706
EMC-BAC-2	0.327
NCI-H2126	0.607
NCI-H1734	0.446
NCI-H650	0.484
LK-2	0.247

Cell Line	relative viability
NCI-H2228	0.488
NCI-H2342	0.288
SK-MES-1	0.408
HARA	0.249
COR-L23	0.495
COR-L 105	0.462
LC-2-ad	0.671
LXF-289	0.253
ChaGo-K-1	0.598
NCI-H2170	0.556
NCI-H322M	0.246
HCC-78	0.323
SW 900	0.855
NCI-H1792	0.759
NCI-H1563	0.442
HCC-366	0.56

same assay, conditions: first compound 1 µM

Cell Line	relative viability
NCI-H522	0.848
NCI-H1623	0.508
PC-14	0.253
NCI-H1666	0.766
NCI-H1755	0.378
NCI-H2023	0.46
EPLC-272H	0.346
LCLC-97TM1	0.802
PC-3 [JPC-3]	0.942
LOU-NH91	0.495
NCI-H647	0.228
NCI-H23	0.628
EMC-BAC-2	0.31
NCI-H2126	0.546
NCI-H1734	0.451
NCI-H650	0.432
LK-2	0.255

Cell Line	relative viability
NCI-H2228	0.447
NCI-H2342	0.331
SK-MES-1	0.376
HARA	0.216
COR-L23	0.504
COR-L 105	0.377
LC-2-ad	0.544
LXF-289	0.166
ChaGo-K-1	0.547
NCI-H2170	0.502
NCI-H322M	0.24
HCC-78	0.368
SW 900	0.434
NCI-H1792	0.755
NCI-H1563	0.461
HCC-366	0.54

compound: CC1(C)CCC(CN2CCN(c3ccc(C(=O)NS(=O)(=O)c4ccc(NCC5CCOCC5)c([N+](=O)[O-])c4)c(Oc4cnc5[nH]ccc5c4)c3)CC2)=C(c2ccc(Cl)cc2)C1 [Venetoclax] + O=C(CCCCCCC(=O)Nc1ccccc1)NO [Vorinostat] (partner 1 µM); assay: as above; conditions: first compound 0.01 µM
How it was run: as §1

Cell Line	relative viability
NCI-H522	1
PC-14	0.642
NCI-H1666	0.997
NCI-H1755	0.751
NCI-H2023	0.749
EPLC-272H	0.495
LCLC-97TM1	0.453
PC-3 [JPC-3]	0.879
LOU-NH91	0.868
NCI-H647	0.451
NCI-H23	0.565
EMC-BAC-2	0.465
NCI-H2126	0.848
HCC-44	1.05
NCI-H1734	0.613
NCI-H650	0.42

Cell Line	relative viability
LK-2	0.214
NCI-H2228	0.915
NCI-H2342	0.667
SK-MES-1	1.01
HARA	0.568
COR-L23	0.428
COR-L 105	0.789
LC-2-ad	0.721
LXF-289	0.885
ChaGo-K-1	0.879
NCI-H2170	0.685
NCI-H322M	0.982
IA-LM	0.673
HCC-78	0.448
SW 900	0.485
HCC-366	0.311

same assay, conditions: first compound 0.03162 µM

Cell Line	relative viability
NCI-H522	0.849
PC-14	0.788
NCI-H1666	1.05
NCI-H1755	0.801
NCI-H2023	0.708
EPLC-272H	0.422
LCLC-97TM1	0.892
PC-3 [JPC-3]	1.12
LOU-NH91	1.05
NCI-H647	0.629
NCI-H23	0.752
EMC-BAC-2	0.783
NCI-H2126	0.798
HCC-44	1.14
NCI-H1734	0.876
NCI-H650	0.413
LK-2	0.38

Cell Line	relative viability
NCI-H2228	0.623
NCI-H2342	0.823
SK-MES-1	1.1
HARA	0.605
COR-L23	0.439
COR-L 105	0.763
LC-2-ad	0.729
LXF-289	0.791
ChaGo-K-1	0.759
NCI-H2170	0.763
NCI-H322M	1
IA-LM	1.01
HCC-78	0.446
SW 900	0.663
NCI-H1648	0.397
HCC-366	0.395

same assay, conditions: first compound 0.1 µM

Cell Line	relative viability
NCI-H522	0.96
PC-14	0.822
NCI-H1666	1.07
NCI-H1755	0.774
NCI-H2023	0.73
EPLC-272H	0.579
LCLC-97TM1	0.443
PC-3 [JPC-3]	0.929
LOU-NH91	0.916
NCI-H647	0.529
NCI-H23	0.54
EMC-BAC-2	0.352
NCI-H2126	0.687
HCC-44	1.08
NCI-H1734	0.711
NCI-H650	0.471
LK-2	0.304

Cell Line	relative viability
NCI-H2228	0.799
NCI-H2342	0.739
SK-MES-1	1.06
HARA	0.554
COR-L23	0.39
COR-L 105	0.866
LC-2-ad	0.641
LXF-289	0.746
ChaGo-K-1	0.546
NCI-H2170	0.682
NCI-H322M	0.818
IA-LM	0.8
HCC-78	0.373
SW 900	0.545
NCI-H1648	0.494
HCC-366	0.273

same assay, conditions: first compound 0.3162 µM

Cell Line	relative viability
NCI-H522	0.839
PC-14	0.692
NCI-H1666	1.02
NCI-H1755	0.739
NCI-H2023	0.631
EPLC-272H	0.469
LCLC-97TM1	0.635
PC-3 [JPC-3]	0.915
LOU-NH91	1.03
NCI-H647	0.528
NCI-H23	0.619
EMC-BAC-2	0.672
NCI-H2126	0.774
HCC-44	1.1
NCI-H1734	0.761
NCI-H650	0.462
LK-2	0.278

Cell Line	relative viability
NCI-H2228	0.461
NCI-H2342	0.683
SK-MES-1	1.08
HARA	0.512
COR-L23	0.433
COR-L 105	0.899
LC-2-ad	0.69
LXF-289	0.751
ChaGo-K-1	0.694
NCI-H2170	0.804
NCI-H322M	0.996
IA-LM	0.958
HCC-78	0.438
SW 900	0.617
NCI-H1648	0.451
HCC-366	0.346

same assay, conditions: first compound 1 µM

Cell Line	relative viability
NCI-H522	0.896
PC-14	0.641
NCI-H1666	1.07
NCI-H1755	0.741
NCI-H2023	0.587
EPLC-272H	0.494
LCLC-97TM1	0.667
PC-3 [JPC-3]	0.675
LOU-NH91	0.874
NCI-H647	0.465
NCI-H23	0.521
EMC-BAC-2	0.417
NCI-H2126	0.699
HCC-44	1
NCI-H1734	0.76
NCI-H650	0.391
LK-2	0.248

Cell Line	relative viability
NCI-H2228	0.436
NCI-H2342	0.802
SK-MES-1	0.966
HARA	0.4
COR-L23	0.392
COR-L 105	0.818
LC-2-ad	0.686
LXF-289	0.734
ChaGo-K-1	0.737
NCI-H2170	0.742
NCI-H322M	0.903
IA-LM	1
HCC-78	0.424
SW 900	0.486
NCI-H1648	0.477
HCC-366	0.312
